Assay results as given in patent US10988456B2, “O-aminoheteroaryl alkynyl-containing compound, preparation method therefor, and use thereof” (SHANGHAI INSTITUTE OF MATERIA MEDICA, CHINESE ACADEMY OF …, priority 2017, dated 2021).
“Also recorded” adds a separate entry of the source.

Key:
[1] = test system: human lung cancer NCI-H1581 xenografts; experiment: Growth of subcutaneous xenografts of human lung cancer NCI-H1581 in nude mice; assay type: in vivo; details: for Relative tumor volume RTV (mean ± SD): NCI-H1581, 50 mg/kg orally once a day; for Weight (g, mean ± SD): NCI-H1581 tumor-bearing mice, 50 mg/kg orally once a day
Protocol: The diameter of the subcutaneously implanted tumor in nude mice was measured by a vernier caliper. […] In the compound HuFGFR267 50 mg/kg group, the compound was formulated with 0.5% methylcellulose (MC) to the required concentration before use. The formulation of compound was prepared once a week, and orally administered once a day for 14 days. The positive control drug AZD4547 was diluted to the required concentration with water for injection containing 1% Tween 80 before use. The formulation of AZD4547 was prepared once a week, and orally administered once a day for 14 days. In the solvent control group, an equal amount of water for injection was administrated.

[2] = test system: human gastric cancer SNU-16 xenografts; experiment: Growth of subcutaneous xenografts of human gastric cancer SNU-16 in nude mice (HuFGFR267 study); assay type: in vivo; details: for relative tumor proliferation rate T/C: day 21; for Weight (g, mean ± SD): SNU-16 tumor-bearing mice
Protocol: The diameter of the subcutaneously implanted tumor in nude mice was measured by a vernier caliper. […] In the compound HuFGFR267 50 mg/kg group, the compound was formulated with 0.5% methylcellulose (MC) to the required concentration before use. […] The positive control drug AZD4547 was diluted to the required concentration with water for injection containing 1% Tween 80 before use. […] In the solvent control group, an equal amount of water for injection was administrated.

KDR = KDR (Homo sapiens, UniProt P35968); experiment: Inhibition of receptor tyrosine kinase activity at molecular level (ELISA, Poly(Glu,Tyr)4:1 substrate phosphorylation); assay type: biochemical; details: 10 nM compound; average of two independent experiments
RET = RET (Homo sapiens, UniProt P07949); experiment: as above; assay type: biochemical
How it was run: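 Poly(Glu,Tyr)4:1-coated plates (20 μg/mL) were incubated with recombinant kinase, compound and 5 μM ATP (final) in HEPES pH 7.4 buffer with MgCl2/MnCl2/Na3VO4/DTT for 1 h at 37 °C. Phosphotyrosine was detected with PY99 and HRP anti-mouse IgG plus OPD at 490 nm. IC50 came from four-parameter regression.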

FGFR1 = FGFR1 (Homo sapiens, UniProt P11362); experiment: as above; assay type: biochemical; details: 10 nM compound; average of two independent experiments
[3] = test system: RET signaling pathway in TT and BaF3/CCDC6-RET cells; experiment: Western blotting of RET signaling pathway activation in cells; assay type: cell-based; details: compounds 2 hours; P-RET, P-AKT, P-ErK
Protocol: Detecting the Effect of Compounds on the Activation of RET Signaling Pathway in TT and BaF3/CCDC6-RET Cells by Western Blotting
The cells were seeded into a 12-well plate (250,000/well). After incubation for 18-24 hours, the compounds were added to react for 2 hours, and then the cells were collected and firstly washed once with cold PBS (containing 1 mmol sodium vanadate); then 1×SDS gel loading buffer (50 mmol Tris-HCl (pH 6.8), 100 mmol DTT, 2% SDS, 10% glycerol, 1 mmol sodium vanadate, 0.1% bromophenol blue) was added to lyse cells. The cell lysate was heated in a boiling water bath for 10 minutes, and then centrifuged at 12,000 rpm for 10 minutes at 4° C.
The supernatant was taken for SDS-PAGE electrophoresis (Mini-PROTEAN 3 Cell, Bio-Rad, Hercules, Calif., USA). After electrophoresis, the proteins were transferred to a nitrocellulose membrane using a semi-dry electrotransfer system (Amersham Life Sciences, Arlington Heights, Ill., USA). The nitrocellulose membrane was placed in a blocking solution (5% skim milk powder diluted in TBS containing 1 mmol sodium vanadate) for 2 hours at room temperature, and then the membrane was placed and reacted with a primary antibody at 4° C. overnight. […] The membrane was placed in a secondary antibody solution and reacted for 1-2 hours at room temperature. After the membrane was washed three times as above, the membrane was stained using ECL (Picece, Rockford, Ill.) reagent was used for staining and then developed.

Sequence of RET (P07949 29-1114): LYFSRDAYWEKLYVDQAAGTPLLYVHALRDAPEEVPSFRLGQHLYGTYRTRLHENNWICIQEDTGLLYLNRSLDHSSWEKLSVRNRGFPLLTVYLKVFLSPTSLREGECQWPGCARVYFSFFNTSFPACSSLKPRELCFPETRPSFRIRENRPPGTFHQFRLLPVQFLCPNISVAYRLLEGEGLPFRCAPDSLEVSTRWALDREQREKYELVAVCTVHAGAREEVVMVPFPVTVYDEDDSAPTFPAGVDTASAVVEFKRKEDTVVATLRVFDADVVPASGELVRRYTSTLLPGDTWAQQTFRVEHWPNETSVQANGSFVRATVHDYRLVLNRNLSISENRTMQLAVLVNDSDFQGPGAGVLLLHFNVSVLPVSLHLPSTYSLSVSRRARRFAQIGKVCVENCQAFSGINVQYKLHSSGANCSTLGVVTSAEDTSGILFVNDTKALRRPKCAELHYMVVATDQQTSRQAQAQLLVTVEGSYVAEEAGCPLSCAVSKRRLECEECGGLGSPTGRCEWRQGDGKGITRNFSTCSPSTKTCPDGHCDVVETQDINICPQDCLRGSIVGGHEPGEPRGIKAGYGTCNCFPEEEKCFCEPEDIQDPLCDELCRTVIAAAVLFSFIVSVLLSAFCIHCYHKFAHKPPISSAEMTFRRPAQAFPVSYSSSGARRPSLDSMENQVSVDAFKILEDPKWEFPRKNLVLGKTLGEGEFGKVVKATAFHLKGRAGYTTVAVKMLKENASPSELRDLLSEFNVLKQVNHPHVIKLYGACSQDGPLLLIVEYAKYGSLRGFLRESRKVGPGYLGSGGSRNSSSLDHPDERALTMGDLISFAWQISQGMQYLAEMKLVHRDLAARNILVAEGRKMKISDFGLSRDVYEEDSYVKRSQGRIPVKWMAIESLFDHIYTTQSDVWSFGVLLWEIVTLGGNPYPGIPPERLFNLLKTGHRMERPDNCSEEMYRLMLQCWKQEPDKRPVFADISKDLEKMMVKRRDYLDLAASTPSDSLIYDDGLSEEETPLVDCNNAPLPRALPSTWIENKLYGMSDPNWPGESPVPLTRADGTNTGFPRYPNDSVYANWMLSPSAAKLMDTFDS
Sequence of FGFR1 (P11362 22-822): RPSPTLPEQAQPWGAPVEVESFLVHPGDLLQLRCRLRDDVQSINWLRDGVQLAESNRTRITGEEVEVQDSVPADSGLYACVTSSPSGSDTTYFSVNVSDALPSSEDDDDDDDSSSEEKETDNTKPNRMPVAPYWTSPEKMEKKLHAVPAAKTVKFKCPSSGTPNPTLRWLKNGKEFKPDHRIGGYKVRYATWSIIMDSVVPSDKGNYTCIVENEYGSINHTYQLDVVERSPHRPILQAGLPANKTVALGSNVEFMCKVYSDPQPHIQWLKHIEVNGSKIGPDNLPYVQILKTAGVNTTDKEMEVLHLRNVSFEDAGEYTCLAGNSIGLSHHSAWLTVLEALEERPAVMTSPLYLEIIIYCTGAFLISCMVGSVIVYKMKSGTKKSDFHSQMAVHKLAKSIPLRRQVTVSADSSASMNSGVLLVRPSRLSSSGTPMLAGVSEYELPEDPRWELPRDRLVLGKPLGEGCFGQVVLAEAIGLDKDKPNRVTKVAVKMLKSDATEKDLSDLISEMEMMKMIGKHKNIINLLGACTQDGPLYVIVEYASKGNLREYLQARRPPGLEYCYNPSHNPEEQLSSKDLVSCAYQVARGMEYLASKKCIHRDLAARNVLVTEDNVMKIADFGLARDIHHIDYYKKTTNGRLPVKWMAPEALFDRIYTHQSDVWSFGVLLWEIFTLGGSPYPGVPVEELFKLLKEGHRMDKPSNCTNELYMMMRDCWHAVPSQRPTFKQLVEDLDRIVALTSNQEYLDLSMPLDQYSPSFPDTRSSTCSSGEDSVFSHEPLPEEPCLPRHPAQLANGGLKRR
Sequence of KDR (P35968 20-1356): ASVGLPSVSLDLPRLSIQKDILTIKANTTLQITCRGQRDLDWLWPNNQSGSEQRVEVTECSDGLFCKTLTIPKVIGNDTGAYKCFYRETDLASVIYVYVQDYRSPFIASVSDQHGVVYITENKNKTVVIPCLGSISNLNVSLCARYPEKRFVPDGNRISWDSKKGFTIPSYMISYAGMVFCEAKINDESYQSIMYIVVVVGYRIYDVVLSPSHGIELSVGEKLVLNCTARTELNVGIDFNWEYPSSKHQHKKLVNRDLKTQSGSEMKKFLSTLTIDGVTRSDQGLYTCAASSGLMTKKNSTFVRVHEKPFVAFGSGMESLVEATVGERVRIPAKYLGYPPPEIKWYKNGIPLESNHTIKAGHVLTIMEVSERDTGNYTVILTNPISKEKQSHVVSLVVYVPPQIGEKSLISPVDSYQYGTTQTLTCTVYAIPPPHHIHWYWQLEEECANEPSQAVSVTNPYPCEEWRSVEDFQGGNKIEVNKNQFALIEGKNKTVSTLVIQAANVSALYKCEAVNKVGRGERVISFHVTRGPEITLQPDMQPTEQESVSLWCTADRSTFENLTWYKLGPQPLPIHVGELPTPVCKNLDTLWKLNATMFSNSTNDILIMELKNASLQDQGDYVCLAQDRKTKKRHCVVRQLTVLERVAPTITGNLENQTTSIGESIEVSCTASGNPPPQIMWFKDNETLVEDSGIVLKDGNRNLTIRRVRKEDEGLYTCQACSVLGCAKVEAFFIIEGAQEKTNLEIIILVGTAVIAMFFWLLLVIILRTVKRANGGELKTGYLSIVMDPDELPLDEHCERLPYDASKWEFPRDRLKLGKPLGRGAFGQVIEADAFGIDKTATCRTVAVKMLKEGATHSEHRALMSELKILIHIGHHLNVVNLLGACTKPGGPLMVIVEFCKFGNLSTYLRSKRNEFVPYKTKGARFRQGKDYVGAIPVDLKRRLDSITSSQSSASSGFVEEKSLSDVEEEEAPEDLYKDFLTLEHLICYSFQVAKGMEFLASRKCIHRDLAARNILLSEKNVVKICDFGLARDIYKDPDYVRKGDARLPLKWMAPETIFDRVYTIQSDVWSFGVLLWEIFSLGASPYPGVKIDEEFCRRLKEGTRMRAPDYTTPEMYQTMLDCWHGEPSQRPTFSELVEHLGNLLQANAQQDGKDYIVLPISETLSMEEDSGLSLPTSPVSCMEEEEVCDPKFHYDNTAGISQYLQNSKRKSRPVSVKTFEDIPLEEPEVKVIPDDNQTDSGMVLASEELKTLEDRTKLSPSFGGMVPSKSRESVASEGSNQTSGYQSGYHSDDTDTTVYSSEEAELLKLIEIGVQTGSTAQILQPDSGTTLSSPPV

CN1CCN(Cc2ccc(NC(=O)c3ccc(Cl)c(C#Cc4cccnc4N)c3)cc2C(F)(F)F)CC1 [Example 1, 3-(2-aminopyridine-3-ethynyl)-4-chloro-N-(4-((4-methylpiperazin-1-yl)methylene)-3-(trifluoromethyl)phenyl)benzamide]
body weight of tumor-bearing mice (in words) ([1]; NCI-H1581, 50 mg/kg orally once a day for 14 days): no significant change
relative tumor proliferation rate T/C ([1]; NCI-H1581, 50 mg/kg orally once a day for 14 days, 14th day): 3.77%
Relative tumor volume RTV (mean ± SD) ([1]; d0): 1.00 ± 0.00
Relative tumor volume RTV (mean ± SD) ([1]; d3): 1.28 ± 0.40
Relative tumor volume RTV (mean ± SD) ([1]; d7): 1.33 ± 0.74
Relative tumor volume RTV (mean ± SD) ([1]; d10): 2.02 ± 1.10
Relative tumor volume RTV (mean ± SD) ([1]; d14): 2.16 ± 1.41
animal deaths during the experiment ([1]; NCI-H1581, each group (HuFGFR267 50 mg/kg, AZD4547 12.5 mg/kg)): no mice died
Weight (g, mean ± SD) ([1]; d0): 18.1 ± 1.2 g
Weight (g, mean ± SD) ([1]; d3): 19.2 ± 1.0 g
Weight (g, mean ± SD) ([1]; d7): 19.7 ± 1.0 g
Weight (g, mean ± SD) ([1]; d10): 20.2 ± 1.2 g
Weight (g, mean ± SD) ([1]; d14): 20.0 ± 1.3 g
relative tumor proliferation rate T/C ([2]; SNU-16, 25 mg/kg orally once a day for 21 days): 18.55%
Relative tumor volume RTV (mean ± SD) ([2]; SNU-16, 25 mg/kg orally once a day, d0): 1.00 ± 0.00
Relative tumor volume RTV (mean ± SD) ([2]; SNU-16, 25 mg/kg orally once a day, d3): 1.74 ± 0.58
Relative tumor volume RTV (mean ± SD) ([2]; SNU-16, 25 mg/kg orally once a day, d7): 2.51 ± 0.93
Relative tumor volume RTV (mean ± SD) ([2]; SNU-16, 25 mg/kg orally once a day, d10): 3.13 ± 1.51
Relative tumor volume RTV (mean ± SD) ([2]; SNU-16, 25 mg/kg orally once a day, d14): 3.79 ± 1.93
Relative tumor volume RTV (mean ± SD) ([2]; SNU-16, 25 mg/kg orally once a day, d17): 3.97 ± 1.58
Relative tumor volume RTV (mean ± SD) ([2]; SNU-16, 25 mg/kg orally once a day, d21): 4.35 ± 2.03
relative tumor proliferation rate T/C ([2]; SNU-16, 50 mg/kg orally once a day for 21 days): 11.66%
Relative tumor volume RTV (mean ± SD) ([2]; SNU-16, 50 mg/kg orally once a day, d0): 1.00 ± 0.00
Relative tumor volume RTV (mean ± SD) ([2]; SNU-16, 50 mg/kg orally once a day, d3): 1.11 ± 0.42
Relative tumor volume RTV (mean ± SD) ([2]; SNU-16, 50 mg/kg orally once a day, d7): 0.83 ± 0.49
Relative tumor volume RTV (mean ± SD) ([2]; SNU-16, 50 mg/kg orally once a day, d10): 1.26 ± 0.71
Relative tumor volume RTV (mean ± SD) ([2]; SNU-16, 50 mg/kg orally once a day, d14): 1.89 ± 1.57
Relative tumor volume RTV (mean ± SD) ([2]; SNU-16, 50 mg/kg orally once a day, d17): 2.02 ± 1.63
Relative tumor volume RTV (mean ± SD) ([2]; SNU-16, 50 mg/kg orally once a day, d21): 2.73 ± 2.82
body weight of tumor-bearing mice (in words) ([2]; SNU-16, HuFGFR267 50 mg/kg and 25 mg/kg groups): no significant change; also recorded: did not change significantly
animal deaths during the experiment ([2]; SNU-16, each group (HuFGFR267 50 and 25 mg/kg, AZD4547 12.5 mg/kg)): no mice died
Weight (g, mean ± SD) ([2]; 25 mg/kg orally once a day, d0): 18.6 ± 1.6 g
Weight (g, mean ± SD) ([2]; 25 mg/kg orally once a day, d3): 19.4 ± 1.7 g
Weight (g, mean ± SD) ([2]; 25 mg/kg orally once a day, d7): 20.0 ± 1.8 g
Weight (g, mean ± SD) ([2]; 25 mg/kg orally once a day, d10): 20.9 ± 1.8 g
Weight (g, mean ± SD) ([2]; 25 mg/kg orally once a day, d14): 21.3 ± 1.7 g
Weight (g, mean ± SD) ([2]; 25 mg/kg orally once a day, d17): 21.2 ± 1.6 g
Weight (g, mean ± SD) ([2]; 25 mg/kg orally once a day, d21): 21.4 ± 1.8 g
Weight (g, mean ± SD) ([2]; 50 mg/kg orally once a day, d0): 18.9 ± 1.9 g
Weight (g, mean ± SD) ([2]; 50 mg/kg orally once a day, d3): 19.4 ± 2.2 g
Weight (g, mean ± SD) ([2]; 50 mg/kg orally once a day, d7): 19.9 ± 2.4 g
Weight (g, mean ± SD) ([2]; 50 mg/kg orally once a day, d10): 20.6 ± 2.3 g
Weight (g, mean ± SD) ([2]; 50 mg/kg orally once a day, d14): 20.5 ± 2.2 g
Weight (g, mean ± SD) ([2]; 50 mg/kg orally once a day, d17): 20.8 ± 2.3 g
Weight (g, mean ± SD) ([2]; 50 mg/kg orally once a day, d21): 20.7 ± 2.2 g
10 nM inhibition ratio KDR (KDR): 45.1
10 nM inhibition ratio RET (RET; 10 nM compound, average of two independent experiments): 87.6
IC50 (RET; measured twice, Mean ± SD): 1.4 ± 0.6 nM
10 nM inhibition ratio FGFR1 (FGFR1): 77.7
inhibition of RET phosphorylation and downstream signaling pathway (Western blot, FIG. 1) [3]: inhibited RET phosphorylation and the downstream signaling pathway
